ChEMBL document CHEMBL1132131, “Dopamine-selective response in membrane potential by homooxacalix[3]arene triether host incorporated in PVC liquid membrane” (Bioorg Med Chem Lett, 1999)

Tests used:
[1] = Selectivity of guest-induced changes in membrane potential at pH 5.0 for PVC matrix liquid membrane without any host; type: ADME
[2] = Selectivity of guest-induced changes in membrane potential at pH 5.0 for PVC matrix liquid membranes incorporated with o-Tolyloxy-acetic acid decyl ester polymer; type: ADME
[3] = Selectivity of guest-induced changes in membrane potential at pH 5.0 for PVC matrix liquid membranes incorporated with (2-Butoxy-5-tert-butyl-3-methyl-phenyl)-methanol polymer; type: ADME
[4] = Selectivity of guest-induced changes in membrane potential at pH 5.0 for PVC matrix liquid membranes incorporated with o-Tolyloxy-acetic acid ethyl ester polymer; type: ADME
[5] = Partition coefficient (logP); type: physicochemical; conditions: octanol/water
[6] = Selectivity of guest-induced changes in membrane potential at pH 5.0 for PVC matrix liquid membranes incorporated with 6,7,9,10,17,18,20,21-Octahydro-5,8,11,16,19,22-hexaoxa-dibenzo[a,j]cyclooctadecene; type: ADME
[7] = Selectivity of guest-induced changes in membrane potential(Kpot A,B) at pH 5.0 for PVC matrix liquid membranes incorporated with 6,7,9,10,17,18,20,21-Octahydro-5,8,11,16,19,22-hexaoxa-dibenzo[a,j]cyclooctadecene; type: ADME

SMILES | Kpot A,B [1] | Kpot A,B [2] | Kpot A,B [3] | Kpot A,B [4] | logP [5] | Kpot A,B [6] | Kpot A,B [7]
CCCCCCCCN | 1.68 | 2.58 | 2.01 | 3.52 | 2.93 | 19 | –
NC12CC3CC(CC(C3)C1)C2 [AMANTADINE] | 1.2 | < 0.01 | 1.85 | < 0.01 | 1.77 | 14.8 | –
NCc1ccccc1 [BENZYLAMINE] | 0.78 | 0.15 | 0.45 | 0.15 | – | – | 0.9
NCCc1ccc(O)c(O)c1 [DOPAMINE] | 1 | 1 | 1 | 1 | 0.82 | – | –
CNC[C@H](O)c1ccc(O)c(O)c1 [EPINEPHRINE] | 0.65 | 0.089 | < 0.01 | 0.09 | 0.59 | – | –
NC[C@H](O)c1ccc(O)c(O)c1 [NOREPINEPHRINE] | – | – | – | – | 0.82 | – | –
NCCc1ccccc1 [PHENETHYLAMINE] | 1 | 1 | 1 | 1 | 1.58 | 1 | –
CC(C)(C)N [TERT-BUTYLAMINE] | 0.56 | < 0.01 | 0.31 | < 0.01 | 0.72 | 0.4 | –
